From paper PMC8752738, “A propolis-derived small molecule ameliorates metabolic syndrome in obese mice by targeting the CREB/CRTC2 transcriptional complex” (Nature Communications, 2022)
Several values for one entry are separate records, joined by “and”; a condition that tells them apart may be missing. Equal values may be shown once.

Target: T1, CREB-CRTC2 interaction (Homo sapiens, UniProt P16220)
T1 construct: expressed in transfected cells; host or cells: HEK293T
Assay: CREB–CRTC2 mammalian two-hybrid assay (GAL4-Luc reporter)
Assay type: cell-based
Settings: Figure 1f; CREB-CRTC2 two-hybrid assay; DMSO control about 100

T1 sequence (P16220 whole entry): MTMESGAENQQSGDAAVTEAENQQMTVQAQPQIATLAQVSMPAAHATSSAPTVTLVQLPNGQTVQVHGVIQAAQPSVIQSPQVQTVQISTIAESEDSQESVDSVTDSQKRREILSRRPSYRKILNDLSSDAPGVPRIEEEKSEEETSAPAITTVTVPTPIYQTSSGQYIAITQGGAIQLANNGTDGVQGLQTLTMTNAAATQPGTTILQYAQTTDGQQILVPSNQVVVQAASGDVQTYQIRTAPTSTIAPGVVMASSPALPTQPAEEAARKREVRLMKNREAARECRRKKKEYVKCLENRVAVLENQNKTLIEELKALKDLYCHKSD

Relative Gal4-LUC activity, single replicates | Compound
73.7017 and 114.823 and 172.832 | O=c1c(O)c(-c2ccc(O)cc2)oc2cc(O)cc(O)c12 [P12, kaempferol]
126.299 and 72.1957 and 55.4453 | COc1ccc(-c2oc3cc(O)cc(O)c3c(=O)c2O)cc1 [P13, kaempferide]
91.5539 and 105.994 and 143.876 | COc1c(O)cc2oc(-c3ccc(O)cc3)c(O)c(=O)c2c1O [P15, 6-methoxykaempferol]
48.4823 and 30.8552 and 26.2372 | COc1ccc(-c2oc3cc(O)c(OC)c(O)c3c(=O)c2O)cc1 [P16, betuletol]
79.2706 and 131.512 and 110.674 | COc1ccc(-c2oc3cc(O)c(O)c(O)c3c(=O)c2OC)cc1 [P17, 5,6,7,-trihydroxy-3,4′-dimethoxyflavone]
63.0454 and 51.143 and 49.1354 | O=C1C[C@@H](c2ccccc2)Oc2cc(O)cc(O)c21 [P18, pinocembrin]
126.871 and 59.3858 and 61.7309 | O=C1c2c(O)cc(O)cc2O[C@H](c2ccc(O)cc2)[C@H]1O [P20, aromadendrin]
44.892 and 54.8815 and 50.4357 | COc1ccc(C2Oc3cc(O)cc(O)c3C(=O)C2O)cc1 (stereo not drawn) [P21, dihydrokaempferide]

Compound | Relative Gal4-LUC activity, single replicates
O=c1c(O)c(-c2ccc(O)c(O)c2)oc2cc(O)cc(O)c12 [P14, quercetin] | 130.988 and 153.776 and 136.769
